Test results taken from patent US20260002950A1, “Uses of 5-Aminovaleric Acid Betaine and Compositions Related Thereto” (Emory University, priority 2021, published 2026).
Entries after “also recorded” stand apart in the source; their conditions may differ.

Key:
carnitine shuttle = experiment: Stable isotope tracer study of palmitate metabolism in cultured cells; type: cell-based
Method: (§1) Dose-response experiments with VB were performed in vitro and in vivo to examine metabolic effects of VB. The mitochondrial carnitine shuttle is the top metabolic pathway associated with VB in human HepG2 cells. […] The carnitine shuttle uses carnitine for transport of long-chain fatty acyl chains into mitochondria for fatty acid β-oxidation. […] The effect of VB on inhibition of palmitate-dependent oxygen consumption rate is confirmed by stable isotope tracer studies of palmitate metabolism, which show VB inhibits formation of ^13C16 palmitoylcarnitine from ^13C16 palmitate and decreases the formation of ^13C2 acetyl-CoA (FIG. 2D). […] Thus, VB inhibits mitochondrial long chain fatty acid metabolism through effects on carnitine and operation of the carnitine shuttle.

HepG2 cells = experiment: Palmitate-dependent mitochondrial O2 consumption rate in HepG2 cells; type: cell-based, human
Method: […] Effect of VB is most pronounced in the spare capacity measured after addition of the uncoupler FCCP.
as §1

mice [1] = settings: cited from earlier work
mouse cardiomyocytes = settings: cited from earlier work
[2] = target: T1, γ-butyrobetaine hydroxylase (Homo sapiens, UniProt O75936); settings: cited from earlier work
T1 sequence (O75936 1-387): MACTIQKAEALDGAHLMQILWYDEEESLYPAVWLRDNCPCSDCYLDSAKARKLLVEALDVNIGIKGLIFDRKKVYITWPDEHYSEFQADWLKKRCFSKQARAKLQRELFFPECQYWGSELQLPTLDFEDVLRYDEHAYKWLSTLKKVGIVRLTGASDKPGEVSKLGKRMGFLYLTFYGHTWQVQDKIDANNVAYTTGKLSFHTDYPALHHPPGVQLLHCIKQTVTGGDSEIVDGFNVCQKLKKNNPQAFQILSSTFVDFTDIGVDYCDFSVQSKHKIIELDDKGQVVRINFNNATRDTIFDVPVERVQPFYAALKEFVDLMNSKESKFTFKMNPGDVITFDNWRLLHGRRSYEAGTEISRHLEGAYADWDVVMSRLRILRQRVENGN

[3] = Concentrations of VB in tissues and circulation of conventional mice (mass spectrometry); type: in vivo; settings: endogenous
Text: To identify microbial metabolites that could impact mitochondrial function, the metabolome of liver and liver mitochondria was examined in mice with an intact microbiome (“conventionalized” mice in which germ-free mice were reconstituted with microbiome) compared to liver and liver mitochondria from germ-free mice (FIG. 1A). The top discriminatory metabolite has an accurate mass m/z of 160.1332 by ultra-high-resolution mass spectrometry, corresponding to predicted elemental composition C8H18NO2. This metabolite is found in liver and other tissues, portal and peripheral circulation, and cecum of conventional but not germ-free mice (FIG. 1B). Authentic standard co-elution and MS/MS experiments show the identity of 160.1332 m/z to be delta-valerobetaine (VB) (FIG. 1C). Concurrent analyses of propionylcholine and valine betaine, similar molecules with identical elemental compositions, conclusively excluded these structures. VB was not present in the mouse diet and was not detectable in other samples collected from GF mice. […] Concentrations were 9-26 μM in the portal vein, with higher concentrations in the liver (75-190 μmol/kg wet weight) and lower concentrations in the peripheral plasma (2-10 μM) indicating tissue accumulation.

conventional mice = experiment: 8-week VB treatment of conventional mice on Western or control diet: adiposity; type: in vivo
Text: (n=5 per group, one-tailed t-test).
The relative increases are most pronounced in VAT, where fat mass in VB-treated mice on a Western diet was increased 80% in male mice and 60% in female mice compared to Western diet alone. […] The long-term consequences of VB inhibition of mitochondrial β-oxidation of fatty acids therefore include effects on body composition in mice receiving Western diet, with specific and pronounced effects on visceral adipose tissue mass.
(§2) VB effects in fasting are particularly intriguing as a mechanism causing obesity because decreasing mitochondrial β-oxidation of lipids mobilized from adipose tissue during fasting could cause a long-term increase in fat deposition. Therefore, experiments were performed to determine whether long-term VB treatment could increase weight gain and adiposity in mice. This was tested this in both GF and conventional mice, with or without a high-fat/sugar WD. Backhead et al. report a resistance to diet-induced obesity in germ-free mice. PNSA, 104 (3), 2007. […] Furthermore, VB treatment exacerbated the development of hepatic steatosis in these mice (FIG. 4E). Similarly, VB increased adipose tissue fat mass (VAT, SubQ, BAT) in conventional mice after 8 weeks with the WD. The relative increases were most pronounced in white adipose compartments (VAT, SubQ) where fat mass in VB treated GF and conventional mice on a WD was increased over 80% compared to WD alone.
(§3) Although WD-fed mice gained more weight than control fed mice, no differences in circulating VB were observed between WD or control-diet-fed conventional mice. These effects were not observed in GF or conventional mice fed the control diet.

GF mice = experiment: 6-week VB treatment of germ-free (GF) mice on Western or control diet; type: in vivo
Method: FIG. 4A illustrates experiments on long-term VB treatment in GF mice. Male GF mice were administered PBS or VB in conjunction with a control diet (CD) or WD for 6 weeks with body weight recorded as percentage weight gain (two-way repeat measures ANOVA with multiple comparisons per day.
as §2, §3

mice [4] = experiment: VB treatment of mice for 3 days ± fasting: hepatic lipid accumulation; type: in vivo
Method: Mice of each sex were given daily intraperitoneal injection with saline (n=5) or VB at 100 mg/kg (n=5) for 3 days±fasting.
(§4) As observed in cells, the carnitine shuttle is the top metabolic pathway associated with VB-treatment in mice. VB treatment decreases circulating (FIG. 2A), hepatic (FIG. 2B), heart, and brain carnitine. Furthermore, VB treatment alters circulating and systemic acylcarnitine and acyl-CoA profiles. In whole tissue, VB increases hepatic and cardiac palmitoyl-CoA and decreases other short, medium, and long-chain acylcarnitines and CoAs under fasted conditions. In mitochondria, VB decreases the abundance of long-chain fatty acyl-CoAs and carnitines, consistent with a decrease in long-chain fatty acid β oxidation. VB also decreases circulating and hepatic β-hydroxybutyrate, a product of mitochondrial β-fatty acid oxidation.

PPAR-response element = experiment: PPAR-response element-linked luciferase activity; type: cell-based
Text: An alternative interpretation of VB activity involves an adaptive response termed mitohormesis, a process by which a minor impairment increases gene expression of mitochondrial systems which improve metabolic function of mitochondria. […] With this interpretation, VB-induced lipid accumulation could drive activity of SIRT1, PGC-1a and PPAR-a pathways which control carnitine homeostasis, mitochondrial bioenergetics, and lipid metabolism. […] Thus, VB may function through a mitohormesis response mechanism and in conjunction with diet and aging, contribute to age dependent changes in adiposity.

human HepG2 cells = experiment: Cell content of carnitine in HepG2 cells, VB dose-response; type: cell-based; settings: VB at 10 μM, vs control cells
Method: as §1

mice [5] = experiment: VB treatment of mice, daily intraperitoneal injection for 1 week: carnitine and metabolite profiles; type: in vivo
Method: Mice of each sex were given daily intraperitoneal injection with saline (n=5), VB at 10 mg/kg (n=3) or VB at 100 mg/kg (n=8) for 1 week. Kruskal-Wallis test with Dunn's multiple comparisons test to identify pairwise differences in GraphPad Prism 6.0.
as §4

In the case of `C[N+](C)(C)CC(O)CC(=O)[O-]` (centres unmarked) [carnitine, reference compound], the “Rescue of VB effect on cellular carnitine and palmitoylcarnitine formation” value (carnitine shuttle; addition of carnitine to VB-treated cells) is reported as “restores cellular carnitine and formation of palmitoylcarnitine”.

For `C[N+](C)(C)CCCCC(=O)[O-]` [VB, 5-(trimethylammonio) pentanoate], the “Palmitate-dependent mitochondrial oxygen respiration (O2 consumption rate)” value (HepG2 cells; HepG2, 12 h without glucose, glutamine and pyruvate (mimicking fasting), VB 10 or 50 μM) is given as “inhibited; also recorded: dose-dependent decrease”, the “Basal, ADP-linked O2 consumption rate, spare capacity, non-mitochondrial respiration” value (HepG2 cells; glucose, glutamine and pyruvate present at high concentration in culture media) is given as “little decrease” and the Fatty liver (mice [1]) is given as “exacerbates”. For the same compound, the “β-oxidation of fatty acids” value (mouse cardiomyocytes) was “decreases”, the γ-butyrobetaine hydroxylase activity [2] was “inhibits” and the “Concentration of VB in the cecum” value [3] was “millimolar range”. The “Concentration of VB in the liver” value [3] was 75-190 μmol/kg wet weight, the “Concentration of VB in the peripheral plasma” value [3] was 2 to 10 µM and the “Concentration of VB in the portal vein” value [3] was 9 to 26 µM. For the same compound, the “Concentration of VB in the colon” value ([3]; relative to cecum) was “somewhat lower concentrations”, the “Weight of brown adipose tissue (BAT)” value (conventional mice; 8 weeks) was “increased by VB in a diet dependent manner after 8-week VB treatment in males but not females; also recorded: increases brown adipose tissue (BAT) but in a less consistent manner” and the “Weight of subcutaneous white adipose tissue (WAT)” value (conventional mice; Western diet, 8 weeks) was “increased by VB in a diet-dependent manner; also recorded: substantial increases”. For the same compound, the “Weight of visceral adipose tissue (VAT)” value (conventional mice; Western diet, 8 weeks) was “increased by VB in a diet dependent manner; also recorded: substantial increases”, the “Increase of fat mass in white adipose compartments (VAT, SubQ) vs WD alone” value (conventional mice; conventional mice on WD) was “over 80%” and the “Adipose tissue fat mass (VAT, SubQ, BAT)” value (conventional mice; conventional mice, WD, 8 weeks) was “increased”. For the same compound, the “Severity of hepatic steatosis” value (conventional mice; conventional mice, Western diet, 8 weeks) was “Trends for increase”, the Total body mass (conventional mice; conventional mice, Western diet, after 8 weeks, not p<0.05) was “Trends for increase” and the “Effects on adiposity, steatosis and body mass on control diet” value (conventional mice; conventional mice, control diet) was “not observed”. The “Increase of visceral adipose tissue (VAT) fat mass vs Western diet alone” value (conventional mice; female mice, Western diet, 8 weeks) was 60%, the “Increase of visceral adipose tissue (VAT) fat mass vs Western diet alone” value (conventional mice; male mice, Western diet, 8 weeks) was 80% and the “Carnitine concentrations after parenteral VB dosing” value (GF mice; GF mice) was “equivalent to conventional mice”. The “Increase of fat mass in white adipose compartments (VAT, SubQ) vs WD alone” value (GF mice; GF mice on WD) was “over 80%”, the “Adipose tissue fat mass in VAT, SubQ and BAT compartments vs WD alone” value (GF mice; GF mice, WD, six weeks) was “substantial increases” and the Weight gain (GF mice; GF mice, WD, six weeks) was “increased weight gain”. The “Development of hepatic steatosis” value (GF mice; GF mice, WD, six weeks, liver H&E scoring) was “exacerbated”, the “Effects on adiposity, steatosis and body mass on control diet” value (GF mice; GF mice, control diet) was “not observed” and the “Liver triglycerides (hepatic steatosis)” value (mice [4]; male and female mice, VB 100 mg/kg i.p. 3 days, fasted) was “exacerbates hepatic steatosis; also recorded: increase”. The “Liver lipid deposits, Oil Red O staining” value (mice [4]; mice, especially under fasted conditions) was “increases lipid deposits”, the “Hepatic and cardiac palmitoyl-CoA” value (mice [4]; mice, whole tissue, fasted conditions) was “increases” and the “Formation of 13C16 palmitoylcarnitine from 13C16 palmitate” value (carnitine shuttle; cultured cells) was “inhibits”. For the same compound, the “Formation of 13C2 acetyl-CoA from labeled palmitate” value (carnitine shuttle; cultured cells, n=3) was “decreases”, the “PPAR-response element-linked luciferase activity” value (PPAR-response element) was “dose-dependent increase” and the “Cell content of carnitine” value (human HepG2 cells) was “decreased to half that of control cells”. The “Circulating and hepatic β-hydroxybutyrate” value (mice [5]) was “decreases”, the Circulating carnitine (mice [5]; VB 10 or 100 mg/kg i.p. daily, 1 week) was “decreases” and the Brain carnitine (mice [5]; VB treatment) was “decreases”. The Heart carnitine (mice [5]; VB treatment) was “decreases”, the Hepatic carnitine (mice [5]; VB treatment) was “decreases” and the “Triacylglycerol and diacylglycerol species in liver, heart and brain” value (mice [5]; lipid profiling) was “increases”. For the same compound, the “Abundance of long-chain fatty acyl-CoAs and carnitines in mitochondria” value (mice [5]; mitochondria) was “decreases”.
